Measurements taken from the METLIN SMRT retention time set (Domingo-Almenara et al. 2019).

Assay: gradient 5% acetonitrile 3 min, to 50% in 2 min, to 85% in 15 min, held 3 min, 100 µL/min
Conditions: column: Zorbax Extend-C18 2.1 x 50 mm; eluents: water / acetonitrile, 0.1% formic acid
How it was run: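 The system's dead and dwell volumes were 40 μL and 900 μL, with a Zorbax Extend-C18 column (2.1 × 50 mm, 1.8 μm) run at 100 μL/min in water and acetonitrile containing 0.1% formic acid each. Pure standards were analyzed in mixtures of ~100 molecules by HPLC–quadrupole time-of-flight mass spectrometry in positive and negative ionization mode. Retention time was assigned from computationally picked, manually inspected adduct peaks.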

RP-LC retention time [s]	SMILES
715	Cn1cnc([N+](=O)[O-])c1Sc1nnnn1-c1ccccc1
702	CCOC(=O)c1csc(NC(=O)c2ccn(CC)n2)n1
890	Cc1csc(-c2cc(S(=O)(=O)N3CCCCC3)cn2CC(=O)N2CCCC2)n1
891	CCc1noc(NC(C)=O)c1-c1ccc(OC)c(S(=O)(=O)Nc2ccc(C(C)C)cc2)c1
657	CCCNC(=O)C1CCCN(c2ccc(SCC(=O)Nc3ccc4c(c3)OCCO4)nn2)C1 (centres undefined)
669	CCNc1cc(N2CCC(CCC(=O)NCc3cc(F)cc(F)c3)CC2)ncn1
723	Cc1ccc(C)c(CNC(=O)C2CCCN(c3cnn(C)c(=O)c3)C2)c1 (centres undefined)
1100	Cc1ccc(S(=O)(=O)CC(=O)Nc2nc(-c3ccc4ccccc4c3)cs2)cc1
831	CN1C(=O)c2cccnc2Sc2cc(NC(=O)Cc3cccc(Cl)c3)ccc21
625	CCn1ccc(C(=O)N2CC(N(C3CCOCC3)S(C)(=O)=O)C2)n1
560	Cc1nc(NCCNC(=O)c2cccs2)cc(N2CCCC2)n1
704	CCOc1ccc(NC(=O)N2CCC(c3nc(C(=O)N4CCOCC4)c(C)o3)CC2)cc1
935	COc1ccc(Cl)cc1S(=O)(=O)N1CCCC(C(=O)NCCc2ccccc2)C1 (centres undefined)
733	CC1=C(c2ccc(Cl)cc2)S(=O)(=O)N=C1N1CCC(NC(=O)C2CCOC2)CC1 (centres undefined)
641	Cc1ccc(C(=O)N2CCCCC2c2nc(-c3cccnc3)no2)cn1 (centres undefined)
862	Cc1ccc(CN2C(=O)C3(CCOCC3)CC2c2nnnn2C(C)(C)C)cc1C (centres undefined)
603	COc1cc(OC)cc(C(=O)N2CCN(c3nnc4c(Cl)cccn34)CC2)c1
819	Cn1cccc1C(=O)Nc1cnn(-c2ncc(N3CCCCC3)cn2)c1
1260	Cc1ccc(-c2noc(-c3cccc(S(=O)(=O)N(C)Cc4ccco4)c3)n2)cc1
1020	CC(C)n1cc(C2=CCN(S(=O)(=O)Cc3ccccc3)CC2)c2cccnc21
955	Cc1nn(Cc2nc(-c3ccc(NC(=O)c4ccsc4)cc3)oc2C)c(C)c1C
581	CC(C)Oc1ccc(CN2C[C@@H]3C(=O)N(CCCN4CCCC4=O)C(=O)[C@@H]3C2)cc1

RP-LC retention time [s]	SMILES
1030	CCCCN1C(=O)C(C)(C(=O)NCc2cccc(C)c2)Oc2cccnc21 (centres undefined)
977	COC(=O)C1=CN(C2CC2)c2cc(N3CCc4ccccc4C3)c(F)cc2S1(=O)=O
699	Cc1nc(-c2cccc(-c3noc(C(=O)NCCCN4CCC(C)CC4)n3)c2)cs1
817	Cc1ccc(CN2CCN(C3CCN(C(=O)Nc4ccc(C)c(F)c4)CC3)C(=O)C2=O)cc1
758	CCCNC(=O)N1CCCC1c1nc(-c2ccc(OC)cc2)no1 (centres undefined)
942	Cc1ccc(S(=O)(=O)N2CCc3ccc(NC(=O)Cc4cccs4)cc3C2)cc1
719	CS(=O)(=O)N1CCN(Cc2nnnn2-c2ccc(Cl)cc2)CC1
802	COc1ccc(C2C(C(=O)NCc3ccccc3OC)c3cc(OC)c(OC)cc3C(=O)N2C)cc1 (centres undefined)
721	COc1cc(NC(=O)Cn2c(N3CCc4ccccc4C3)nc(C)cc2=O)cc(OC)c1OC
750	Cc1ccc(S(=O)(=O)N2CCC3(CC2)NCCN=C3NCc2cccc(F)c2)c(C)c1
715	CCOC(=O)c1cc(-c2ccccc2)n(CCC(=O)N2CCN(c3ccccn3)CC2)c1C
966	Cc1ccc(Nc2nc(C(=O)NC3CCCCCC3)nc3ccccc23)cc1
755	COc1cccc(C(=O)Nc2nnc(SC)s2)c1
619	COc1ccccc1NC(=O)CSCC(=O)N1CCC(C(N)=O)CC1
1220	Cc1ccc(S(=O)(=O)Nc2nc3ccccc3nc2Nc2ccc3nsnc3c2)cc1
607	Cc1ccc(OCC(O)CN2CCN(CC(O)COC(C)C)CC2)c(C(C)(C)C)c1 (centres undefined)
685	CCCNC(=O)N(C1CCOCC1)C1CCN(C(=O)Nc2c(F)cccc2F)CC1
1140	CCOC(=O)c1c(C(C)(C)C)oc2ccc(OCC#N)cc12
891	COc1ccc2cc3c(=O)n(-c4ccc(C(=O)O)cc4)nc-3oc2c1
577	Cc1cc(C)n(CCC(=O)NCCn2c(C)cnc2C2CCC2)n1
748	O=C(NCc1csc(C2CCCN(C(=O)C3CCCCC3)C2)n1)C1CC1 (centres undefined)
831	O=C(Cn1cc(C(=O)C2CC2)c2ccccc21)NCc1ccc2c(c1)OCCCO2

RP-LC retention time [s]	SMILES
770	CCC(C(=O)Nc1ccc(OC)cc1)n1cnc2nc3c(cc2c1=O)CCCC3 (centres undefined)
625	CC(=O)N1CCCC(c2nc(CCNC(=O)C3CCC3)cs2)C1 (centres undefined)
793	COc1ccc(CNC(=O)NC2CCN(c3ccc(C)c(C)c3)C2=O)cc1 (centres undefined)
1030	COc1ccc(N2CC(c3noc(-c4ccc(C)c(C)c4)n3)CC2=O)cc1 (centres undefined)
852	COc1ccccc1CNC(=O)c1nnc(-c2ccc(S(=O)(=O)N(C)C)cc2)o1
696	CCc1ccc(S(=O)(=O)Nc2ccc(-c3cn4ccc(C)nc4n3)cc2)cc1
1010	Cc1ccc(N2N=NC3C(=O)N(c4ccccc4)C(=O)C32)cc1C (centres undefined)
1000	CC1(C(=O)NCc2ccc(F)cc2)CCN(S(=O)(=O)c2ccc(Br)cc2)CC1
1410	O=S(=O)(c1ccc2c(c1)CCCC2)N1CCCC1c1nc(-c2cccc(Cl)c2)no1 (centres undefined)
842	O=S(=O)(Nc1ccc2c(c1)OCCO2)c1ccc(-c2nnc(C3CCC3)o2)o1
605	CCn1nccc1C(=O)NCC1Cn2cccc2C(=O)N1C (centres undefined)
788	Cc1ccccc1N1CCN(S(=O)(=O)c2cc3n(c2)CCCNC3=O)CC1
1040	O=C(Nc1cccc(F)c1)C1CCN(S(=O)(=O)c2cc(-c3noc(C4CC4)n3)cs2)CC1
884	O=C(O)c1cc(-c2ccc(F)cc2)nc2ccccc12
1130	CCN1C(=O)C2(CCN(S(=O)(=O)c3cc(F)ccc3C)CC2)c2ccccc21
789	COc1ccccc1NC(=O)C1CCN(S(=O)(=O)c2cc(C(=O)N(C)C)cs2)CC1
606	COc1ccc(CN2CCC3(CC2)CC(O)CCO3)cc1C (centres undefined)
713	CC(C)NC(=O)c1nsc(C(=O)NC2CC2)c1N
1200	O=S(=O)(NC1CCCCCC1)c1cc(-c2cc(C(F)(F)F)on2)cs1
622	CC(C)N1CCN(S(=O)(=O)c2cc(-c3nnc(C4CCC4)o3)co2)CC1
706	CC(C)CN(Cc1ccc(F)cc1)Cc1cc(=O)n2cc(Cl)ccc2n1
982	CSc1cccc(NC(=O)CN2C(=O)C3CCCCN3c3ccc(S(=O)(=O)N(C)C)cc32)c1 (centres undefined)

RP-LC retention time [s]	SMILES
828	COC(=O)c1ccc(NC(=O)C(=O)NCC2CCN(S(C)(=O)=O)CC2)cc1
564	O=C(CSc1ccc(-n2ccnc2)nn1)NC1CCCCC1
786	CCn1cc(S(=O)(=O)Nc2ccc(OC)cc2)c2cccnc21
1090	CCn1cc(C(=O)Nc2cccc(Br)c2)c2nn(-c3ccccc3)c(=O)c-2c1
666	Cn1c(=O)c(-c2noc(C(=O)N3CCN(c4ccccn4)CC3)n2)nn(-c2ccc(F)cc2)c1=O
737	CCNC(=O)c1sc2nc(-c3cccc(C)c3)c(NCCOC)n2c1C
615	COc1ccc(N2CCN(C(=O)c3cn4ccc(C)cc4n3)CC2)cc1
909	CCCNC(=O)Cn1c(=O)c2cnc(-c3ccc(Cl)cc3)nc2n(C)c1=O
620	Cc1cccc(C(=O)N2C[C@@H](F)C[C@H]2C(=O)N2CCOCC2)c1
982	CCOc1ccc(C(=O)N2CCCC2c2nc(-c3ccc(OC)cc3)no2)cc1OCC (centres undefined)
570	O=C(O)CCN1C(=O)C2C3C=CC(C3)C2C1=O (centres undefined)
777	COc1ccc(NC(=O)N2CCC(C(=O)NCc3csc(-c4ccccc4)n3)CC2)c(OC)c1
914	CCc1cccc(NC(=O)Cn2c(=O)n(-c3ccc(F)cc3)c(=O)c3c2cc(C)n3C)c1
855	CCN1C(=O)c2cccnc2Sc2cc(NC(=O)CCc3ccc(OC)cc3)ccc21
935	O=c1n(Cc2cccc(Cl)c2)nc2c(S(=O)(=O)N3CCCCC3)cccn12
603	CC(Cc1ccco1)NC(=O)C(C)n1c2ccccc2c2cnn(C)c(=O)c21 (centres undefined)
670	COCc1noc(C2CN(CCc3ccccc3)CC23CCCC3)n1 (centres undefined)
659	COCC1CN(C)CC12CCN(S(=O)(=O)c1ccc(F)c(C)c1)CC2 (centres undefined)
824	O=C(CN1CCN(Cc2ccc(F)cc2)C1=O)N1CCN(c2ccccc2)CC1
705	CCc1ccc(NC(=O)Cn2c(C(C)C)nc3c(c2=O)CCN(Cc2ccccc2)C3)cc1
680	Cc1cccc(C(=O)N2CCN(c3nnc4cccc(C)n34)CC2)c1
654	Cc1oc(-c2[nH]ncc2C(=O)N2CCCCC2)cc1S(=O)(=O)N1CCOCC1

SMILES	RP-LC retention time [s]
Cc1cc(Br)ccc1NC(=O)CCc1nc(C2=CCN(C)CC2)no1	642
